Test results from patent publication US11236083B2, “Compounds and pharmaceutical compositions for modulating SGK activity, and methods thereof” (NEW ERA PHARMA, INC., priority 2016, dated 2022).
Several values for one entry are separate records, joined by “and”; a condition that tells them apart may be missing. Equal entries are not always repeated. Where two headings read alike, the source gives them in different places.

Columns and labels:
Sgk2 = target: T1, Sgk2 (Homo sapiens, UniProt Q9HBY8); experiment: Enzyme based assay for SGK2 (biotinylated Akt Substrates-2 peptide, Eu3+ Cryptate/XL665 detection); assay type: biochemical
T1 sequence (Q9HBY8 1-367): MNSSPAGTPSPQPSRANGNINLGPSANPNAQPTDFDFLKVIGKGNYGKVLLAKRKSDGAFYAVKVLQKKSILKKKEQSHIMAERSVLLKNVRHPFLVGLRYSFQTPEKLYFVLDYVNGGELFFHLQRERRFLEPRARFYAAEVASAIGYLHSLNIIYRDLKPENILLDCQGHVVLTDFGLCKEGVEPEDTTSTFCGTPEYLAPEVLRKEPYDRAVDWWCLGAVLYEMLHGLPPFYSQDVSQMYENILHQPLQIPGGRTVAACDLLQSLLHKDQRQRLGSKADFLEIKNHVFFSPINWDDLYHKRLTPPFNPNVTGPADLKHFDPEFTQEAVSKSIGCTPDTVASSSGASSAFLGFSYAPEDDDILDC
Experimental: (§1) 1. Enzyme Based Assays for SGK1, SGK2, SGK3, and Akt1
(§2) The kinase enzymatic reaction is carried out with a biotinylated Akt Substrates-2 peptide substrate. The phosphorylated substrate is then detected using a specific anti-phospho peptide antibody which is coupled with Eu^3+ Cryptate and XL665 conjugated with streptavidin.
(§3) Exemplary Assay Conditions
(§4) • Enzyme: ˜0.1 nM • Substrate: 0.2 μM • ATP: 50 μM and 1 mM • Mg^2+: 10 mM • Reaction time: 60 min with 50 μM ATP and 30 min with 1 mM ATP • SA-XL to Biotin: 1:10
(§5) Detailed Steps • 1. prepare the enzyme and substrate solution with the buffer from Cisbio • 2. add the enzyme and substrate solution to the diluted compound plate • 3. transfer 5 μL of compound, enzyme, and substrate mixture to an 384-well assay plate • 4. add 5 μL ATP (with Mg^2+) solution to initiate the reaction • 5. after certain time, add 10 μL of stop solution containing SA-XL and specific antibody • 6. read the plate after 2 h incubation at rt • 7. process the data using prizm software (Exemplary results are shown in FIG. 1.) 2. PK Studies Protocol

293T_O = 293T_O cell testing (Table 2); assay type: cell-based; settings: 293T_O cells
Sgk1 = target: T2, Sgk1 (Homo sapiens, UniProt O00141); experiment: Enzyme based assay for SGK1 (biotinylated Akt Substrates-2 peptide, Eu3+ Cryptate/XL665 detection); assay type: biochemical
T2 sequence (O00141 1-431): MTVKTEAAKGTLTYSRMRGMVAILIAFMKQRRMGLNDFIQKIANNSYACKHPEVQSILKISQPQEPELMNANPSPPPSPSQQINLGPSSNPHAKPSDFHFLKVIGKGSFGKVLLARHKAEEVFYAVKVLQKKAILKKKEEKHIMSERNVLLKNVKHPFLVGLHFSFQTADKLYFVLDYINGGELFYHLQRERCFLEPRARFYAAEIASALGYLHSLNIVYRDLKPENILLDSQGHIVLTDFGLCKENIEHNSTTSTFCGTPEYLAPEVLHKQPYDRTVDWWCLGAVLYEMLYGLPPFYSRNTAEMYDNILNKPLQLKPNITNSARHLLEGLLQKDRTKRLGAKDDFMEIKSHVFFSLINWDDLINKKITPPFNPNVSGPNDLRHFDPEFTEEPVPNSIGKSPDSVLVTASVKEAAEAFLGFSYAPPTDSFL
Experimental: as §1, §2, §3, §4, §5

HeLa = HeLa cell testing (Table 2); assay type: cell-based; settings: Homo sapiens; HeLa cells
293T = 293T cell testing (Table 2); assay type: cell-based; settings: Homo sapiens, HEK-293T; 293T cells
Sgk3 = target: T3, Sgk3 (Homo sapiens, UniProt Q96BR1); experiment: Enzyme based assay for SGK3; assay type: biochemical
T3 sequence (Q96BR1 1-496): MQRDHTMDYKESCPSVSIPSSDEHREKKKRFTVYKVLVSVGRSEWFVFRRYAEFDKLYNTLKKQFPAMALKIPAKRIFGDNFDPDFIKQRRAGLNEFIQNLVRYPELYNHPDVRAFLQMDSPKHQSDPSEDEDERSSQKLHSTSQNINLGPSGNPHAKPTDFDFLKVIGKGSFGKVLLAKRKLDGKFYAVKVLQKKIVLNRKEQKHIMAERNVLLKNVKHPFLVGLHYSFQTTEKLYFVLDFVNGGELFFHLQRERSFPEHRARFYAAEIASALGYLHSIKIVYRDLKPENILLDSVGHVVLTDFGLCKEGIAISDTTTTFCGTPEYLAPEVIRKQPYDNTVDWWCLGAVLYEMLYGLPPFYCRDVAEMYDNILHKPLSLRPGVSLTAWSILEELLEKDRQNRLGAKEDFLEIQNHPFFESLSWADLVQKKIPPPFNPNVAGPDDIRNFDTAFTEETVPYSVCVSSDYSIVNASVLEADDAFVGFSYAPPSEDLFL
Experimental: as §1, §2, §3, §4, §5

hERG channels = target: T4, hERG channels (Homo sapiens, UniProt Q12809); experiment: Qpatch hERG assay (automated patch clamp, whole-cell tail current); assay type: cell-based; settings: for IC50: CHO cell line stably expressing hERG channels, highest test concentration 30 μM
T4 construct: expressed in transfected cells
T4 sequence (Q12809 whole entry): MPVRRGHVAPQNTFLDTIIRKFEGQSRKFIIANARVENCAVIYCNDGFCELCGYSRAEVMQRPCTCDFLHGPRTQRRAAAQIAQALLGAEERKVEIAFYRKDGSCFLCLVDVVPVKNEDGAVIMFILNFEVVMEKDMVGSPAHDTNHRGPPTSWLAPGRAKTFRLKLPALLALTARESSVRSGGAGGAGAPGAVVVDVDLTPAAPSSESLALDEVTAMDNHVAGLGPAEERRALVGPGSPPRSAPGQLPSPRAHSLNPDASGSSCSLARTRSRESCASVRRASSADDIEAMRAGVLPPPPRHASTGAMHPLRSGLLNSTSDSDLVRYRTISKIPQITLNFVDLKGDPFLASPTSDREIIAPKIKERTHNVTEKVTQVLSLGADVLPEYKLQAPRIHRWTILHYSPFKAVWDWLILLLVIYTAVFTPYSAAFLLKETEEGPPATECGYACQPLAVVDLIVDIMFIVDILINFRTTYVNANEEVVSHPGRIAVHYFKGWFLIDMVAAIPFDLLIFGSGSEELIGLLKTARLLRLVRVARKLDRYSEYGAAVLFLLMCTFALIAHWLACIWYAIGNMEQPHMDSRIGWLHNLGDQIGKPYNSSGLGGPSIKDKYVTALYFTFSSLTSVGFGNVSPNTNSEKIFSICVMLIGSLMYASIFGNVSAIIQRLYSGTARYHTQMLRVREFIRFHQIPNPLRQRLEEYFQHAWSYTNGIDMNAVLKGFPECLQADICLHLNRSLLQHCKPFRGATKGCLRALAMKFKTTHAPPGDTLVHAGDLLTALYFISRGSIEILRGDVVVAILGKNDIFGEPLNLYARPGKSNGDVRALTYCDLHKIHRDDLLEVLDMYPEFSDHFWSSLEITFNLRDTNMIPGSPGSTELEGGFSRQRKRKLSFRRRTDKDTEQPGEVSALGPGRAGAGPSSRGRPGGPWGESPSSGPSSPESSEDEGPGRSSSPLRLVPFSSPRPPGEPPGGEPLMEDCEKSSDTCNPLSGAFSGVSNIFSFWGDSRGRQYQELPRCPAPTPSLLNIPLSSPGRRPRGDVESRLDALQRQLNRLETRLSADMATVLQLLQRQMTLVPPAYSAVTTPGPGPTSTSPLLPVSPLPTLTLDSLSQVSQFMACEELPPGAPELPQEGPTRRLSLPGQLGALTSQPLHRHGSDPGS
Experimental: • Assay platform & method: Automated patch clamp (Qpatch-48) • Cell source: CHO cell line stably expressing hERG channels • Measured parameter: Whole-cell tail current of hERG channels • Test concentration: 6 concentrations (30, 10, 3, 1, 0.3, 0.1 μM)
Example: Qpatch hERG Assay

[1] = 50 μM ATP, read-out: Sgk2 (50 μM ATP)
[2] = 1 mM ATP, read-out: Sgk2 (1 mM ATP)
[3] = 50 μM ATP, read-out: Sgk1 (50 μM ATP)
[4] = 1 mM ATP, read-out: Sgk1 (1 mM ATP)

COc1ccc(Cl)c(S(=O)(=O)Nc2ccc(-c3cc4[nH]ncc4c(OCC4CNCCO4)n3)cc2)c1 (stereo not shown)
IC50 (Sgk2; [1]): 2 nM
IC50 (Sgk2; [2]): 15.8 nM
IC50 (293T_O): 35100 nM
IC50 (Sgk1; [3]): 2.5 nM
IC50 (Sgk1; [4]): 6.9 nM
IC50 (HeLa): 11700 nM
IC50 (293T): 20400 nM

COc1ccc(F)c(S(=O)(=O)Nc2ccc(-c3cc4[nH]ncc4c(SCC4CNCCO4)n3)cc2)c1 (stereo not shown)
IC50 (Sgk2; [1]): 3.4 nM
IC50 (Sgk2; [2]): 4.1 nM
IC50 (293T_O): 24500 nM
IC50 (Sgk1; [3]): 2.3 nM
IC50 (Sgk1; [4]): 6.6 nM
IC50 (HeLa): 15600 nM
IC50 (293T): 17900 nM

COc1ccc(F)c(S(=O)(=O)Nc2ccc(-c3cc(CCC4CNCCO4)c4cn[nH]c4c3)cc2)c1 (stereo not shown)
IC50 (Sgk2; [1]): 4.1 nM
IC50 (Sgk2; [2]): 8.2 nM
IC50 (Sgk1; [3]): 3.2 nM
IC50 (Sgk1; [4]): 11.6 nM
IC50 (Sgk3): 150 nM

COc1ccc(F)c(S(=O)(=O)Nc2ccc(-c3cc(NCC4CNCCO4)c4cn[nH]c4c3)cc2)c1 (stereo not shown)
IC50 (Sgk2; [1]): 1.7 nM
IC50 (Sgk2; [2]): 6.6 nM
IC50 (Sgk1; [3]): 1.9 nM
IC50 (Sgk1; [4]): 12.4 nM
IC50 (Sgk3): 150 nM

COc1ccc(F)c(S(=O)(=O)Nc2ccc(-c3cc(OCCO)c4c(N)n[nH]c4c3)cc2)c1
IC50 (Sgk2; [1]): 7.9 nM
IC50 (Sgk2; [2]): 6.2 nM
IC50 (Sgk1; [3]): 5.1 nM
IC50 (Sgk1; [4]): 7.7 nM
IC50 (Sgk3): 90 nM

CCOc1cc(-c2ccc(NS(=O)(=O)c3cc(OC)ccc3F)cc2)cc2[nH]nc(N)c12
IC50 (Sgk2; [1]): 12.3 nM
IC50 (Sgk2; [2]): 29.9 nM
IC50 (Sgk1; [3]): 11.8 nM
IC50 (Sgk1; [4]): 2 nM
IC50 (Sgk3): 130 nM

COCCOc1cc(-c2ccc(NS(=O)(=O)c3cc(OC)ccc3F)cc2)cc2[nH]nc(N)c12
IC50 (Sgk2; [1]): 8 nM
IC50 (Sgk2; [2]): 21.3 nM
IC50 (Sgk1; [3]): 27.7 nM
IC50 (Sgk1; [4]): 92.8 nM
IC50 (Sgk3): 100 nM

Nc1n[nH]c2cc(-c3ccc(NS(=O)(=O)c4cc(Cl)ccc4F)cc3)ccc12
IC50 (Sgk2; [1]): 6.7 nM
IC50 (Sgk2; [2]): 68 nM
IC50 (293T_O): 66800 nM
IC50 (Sgk1; [3]): 3.2 nM
IC50 (Sgk1; [4]): 113 nM
IC50 (HeLa): 6600 nM
IC50 (293T): 27600 nM

COc1ccc(F)c(S(=O)(=O)Nc2ccc(-c3ccc4c(N)n[nH]c4c3)cc2)c1
IC50 (Sgk2; [1]): 6.1 nM
IC50 (Sgk2; [2]): 16 nM
IC50 (293T_O): 47100 nM
IC50 (Sgk1; [3]): 10.9 nM
IC50 (Sgk1; [4]): 35.8 nM
IC50 (HeLa): 13700 nM
IC50 (293T): 56100 nM

COc1ccc(Cl)c(S(=O)(=O)Nc2ccc(-c3ccc4c(N)n[nH]c4n3)cc2)c1
IC50 (Sgk2; [1]): 2.1 nM
IC50 (Sgk2; [2]): 65.1 nM
IC50 (293T_O): 45500 nM
IC50 (Sgk1; [3]): 12.6 nM
IC50 (Sgk1; [4]): 67.7 nM
IC50 (HeLa): 21900 nM
IC50 (293T): 60700 nM

COc1ccc(F)c(S(=O)(=O)Nc2ccc(-c3cnc4cn[nH]c4c3)cc2)c1
IC50 (Sgk2; [1]): 8.6 nM and 3.4 nM
IC50 (Sgk2; [2]): > 200 nM
IC50 (293T_O): > 100000 nM
IC50 (Sgk1; [4]): > 200 nM
IC50 (HeLa): 13800 nM
IC50 (293T): 66500 nM

COc1ccc(F)c(S(=O)(=O)Nc2ccc(-c3cc4[nH]nc(N)c4cn3)cc2)c1
IC50 (Sgk2; [1]): 5.5 nM
IC50 (Sgk2; [2]): 54.1 nM
IC50 (293T_O): > 100000 nM
IC50 (Sgk1; [4]): > 200 nM
IC50 (HeLa): 68400 nM
IC50 (293T): 94400 nM

COc1ccc(F)c(S(=O)(=O)Nc2ccc(-c3cc(OC)c4c(N)n[nH]c4c3)cc2)c1 [C, N-(4-(3-amino-4-methoxy-1H-indazol-6-yl)-phenyl)-2-fluoro-5-methoxybenzenesulfonamide]
IC50 (hERG channels): > 30000 nM

COc1ccc(F)c(S(=O)(=O)Nc2ccc(-c3cc4[nH]nc(N)c4c(C)n3)cc2)c1 [D, N-(4-(3-amino-4-methyl-1H-pyrazolo[4,3-c]pyr-idin-6-yl)phenyl)-2-fluoro-5-methoxybenzenesulfonamide]
IC50 (hERG channels): 12200 nM
Fitting curve Hillslope (hERG channels; Qpatch hERG concentration-response fit): Fitting curve Hillslope = 0.88

COc1ccc(F)c(S(=O)(=O)Nc2ccc(-c3cc(C)c4c(N)n[nH]c4n3)cc2)c1 [E, N-(4-(3-amino-4-methyl-1H-pyrazolo[3,4-b]-pyridin-6-yl)phenyl)-2-fluoro-5-methoxybenzenesulfonamide]
IC50 (hERG channels): > 30000 nM

COc1ccc(F)c(S(=O)(=O)Nc2ccc(-c3cc4[nH]ncc4c(OCC4CNCCO4)n3)cc2)c1 (stereo not shown) [drawing 99]
IC50 (Sgk2; [1]): 0.8 nM
IC50 (Sgk2; [2]): 5.6 nM
IC50 (293T_O): 61200 nM
IC50 (Sgk1; [3]): 3.1 nM
IC50 (Sgk1; [4]): 9.7 nM
IC50 (HeLa): 35800 nM
IC50 (293T): 47900 nM

COc1ccc(F)c(S(=O)(=O)Nc2ccc(-c3cc4[nH]ncc4c(OCC4CNCCO4)n3)cc2)c1 (stereo not shown) [drawing 105]
IC50 (Sgk2; [1]): 1.6 nM
IC50 (Sgk2; [2]): 10 nM
IC50 (Sgk1; [3]): 1.3 nM
IC50 (Sgk1; [4]): 13.4 nM
IC50 (Sgk3): 100 nM

COc1ccc(F)c(S(=O)(=O)Nc2ccc(-c3cc(OC)c4c(N)n[nH]c4c3)cc2)c1 [drawing 108]
IC50 (Sgk2; [1]): 5.1 nM
IC50 (Sgk2; [2]): 8.9 nM
IC50 (Sgk1; [3]): 2.4 nM
IC50 (Sgk1; [4]): 17.8 nM
IC50 (Sgk3): 40 nM

COc1ccc(F)c(S(=O)(=O)Nc2ccc(-c3cc4[nH]nc(N)c4c(C)n3)cc2)c1 [drawing 110]
IC50 (Sgk2; [1]): 3.1 nM
IC50 (Sgk2; [2]): 5.3 nM
IC50 (Sgk1; [3]): 10.6 nM
IC50 (Sgk1; [4]): 8.5 nM
IC50 (Sgk3): 50 nM

COc1ccc(F)c(S(=O)(=O)Nc2ccc(-c3cc(C)c4c(N)n[nH]c4n3)cc2)c1 [drawing 111]
IC50 (Sgk2; [1]): 4.1 nM
IC50 (Sgk2; [2]): 3.7 nM
IC50 (Sgk1; [3]): 2.8 nM
IC50 (Sgk1; [4]): 5.5 nM
IC50 (Sgk3): 30 nM

COc1ccc(F)c(S(=O)(=O)Nc2ccc(-c3ccc4c(N)n[nH]c4n3)cc2)c1 [drawing 140]
IC50 (Sgk2; [1]): 2 nM
IC50 (Sgk2; [2]): 6.5 nM
IC50 (Sgk1; [3]): 2.9 nM
IC50 (Sgk1; [4]): 6.5 nM
IC50 (Sgk3): 70 nM
IC50 (HeLa): 21400 nM
